The values that follow come from patent publication US6515112B2, “Cores for technetium radiopharmaceuticals” (Amersham PLC, priority 1989, dated 2003).

A short description of data set [1]: Animal biodistribution studies of 99mTc complexes in rats. The data set is classed as in vivo, Male Sprague Dawley rats. Details: Heart / Blood / Muscle / Lung / Liver / Kidney / Bladder & Urine / Brain: unit not given here. As to conditions: i.v. tail vein. The procedure: Complex Preparation: 20-25 μl of hydrazine was added to 2 cm^3 of absolute ethanol, then ^99mTcO4^−(0.2-3.0 GBq) and 10 mg of ligand were added to the solution. This mixture was heated to 120° C. for 30-60 minutes, cooled to room temperature and analyzed. For biodistribution studies the total volume of he preparation was made up to 5 cm^3 by the addition of sterile saline solution.
Animal Biodistribution Studies: Six Male Sprague Dawley rats were infected while under light ether anaesthesia with 0.1 cm^3 of preparation (i.v., tail vein) and half were sacrificed by cervical dislocation while under ether anaesthesia at the appropriate time interval post-infection and dissected. Organs were weighed and their activities measured in an ionisation chamber. For the purposes of calculations blood was assumed to constitute 5.8% of the total body weight, muscle was assumed to be 43% and the lungs were assumed to weigh 1 g.

A short description of data set [2]: Stability to air and moisture (observation). It is filed as physicochemical. The settings on record: 99Tc complex, isolated solid.
Data set [3] in a line: Solubility in solvents (observation). It is filed as physicochemical. As to conditions: 99Tc complex, organic solvents.

`CP(C)COCP(C)C` (99mTc complex, metal not drawn) [PL28]: in data set [1] (Time P. I. 2), the “Bladder & Urine” value is given as 0.11, the Blood stood at 4.18, the Brain was 0.04 and the Heart is given as 1.12. Moreover, in data set [1] (Time P. I. 2), the Kidney is given as 9.41, the Liver is on record as 17.8, the Lung amounted to 1.18 and the Muscle was determined as 30.2. In addition, in data set [1] (Time P. I. 60), the “Bladder & Urine” value is 10.9, the Blood amounted to 0.46, the Brain is given as 0.02 and the Heart worked out at 0.65. Besides, in data set [1] (Time P. I. 60), the Kidney was determined as 5.90, the Liver worked out at 5.95, the Lung stood at 0.62 and the Muscle was determined as 27.4. Besides, the “S. I.” value in data set [1] (Time P. I. 60) was 39.6.
Take `CCOCC(COCC)(CP(C)C)CP(C)C` (99mTc complex, metal not drawn) [PL42]: in data set [1] (Time P. I. 2), the “Bladder & Urine” value amounted to 0.06, the Blood is given as 28.6, the H/Bl came out at 0.59 and the H/Li was 0.73. In data set [1] (Time P. I. 2), the Heart was 1.22, the Kidney was 5.35, the Liver is on record as 22.8 and the Lung came to 2.56. In data set [1] (Time P. I. 2), the Muscle is 18.1 and the “S. I.” value is reported as 7.66. Moreover, in data set [1] (Time P. I. 60), the “Bladder & Urine” value came out at 2.61, the Blood is 8.99, the H/Bl was 2.13 and the H/Li was 1.12. Moreover, in data set [1] (Time P. I. 60), the Heart came to 1.19, the Kidney was 3.52, the Liver was determined as 14.7 and the Lung came out at 1.57. Moreover, in data set [1] (Time P. I. 60), the Muscle was found to be 21.3 and the “S. I.” value stood at 31.8.
`COCCC(CCOC)(CP(C)C)CP(C)C` (99mTc complex, metal not drawn) [PL50]: in data set [1] (Time P. I. 2), the “Bladder & Urine” value was determined as 0.09, the Blood worked out at 4.38, the H/Bl is recorded as 2.68 and the H/Li was determined as 0.31. In data set [1] (Time P. I. 2), this molecule gave a Heart of 0.83, a Kidney of 12.0, a Liver of 34.8 and a Lung of 1.02. Moreover, in data set [1] (Time P. I. 2), the Muscle was found to be 18.7 and the “S. I.” value was 12.8. In addition, in data set [1] (Time P. I. 60), the “Bladder & Urine” value is 6.76, the Blood is given as 0.42, the H/Bl turned out to be 22.2 and the H/Li is 1.27. For the same molecule, in data set [1] (Time P. I. 60), the Heart was found to be 0.65, the Kidney turned out to be 6.81, the Liver is given as 4.35 and the Lung is reported as 0.43. Also, in data set [1] (Time P. I. 60), the Muscle is reported as 14.9 and the “S. I.” value came to 57.9.
Turning to `CCCC[N+](CCCC)(CCCC)CCCC.Cc1ccc([N]=[Tc-]([Cl])([Cl])([Cl])[Cl])cc1` [Complex 1, Tetrabutylammonium(1+)tetrachloro(p-tolylimido) technetate (V) (1−)], the “stability to air / moisture” value in data set [2] is reported as “quite sensitive to adventitious moisture”.
Consider `CCCC[N+](CCCC)(CCCC)CCCC.Cc1ccc([N]=[Tc-]([Br])([Br])([Br])[Br])cc1` [Complex 2, Tetrabutylammonium(1+)tetrabromo(p-tolylimido) technetate (V) (1−)], for which the “stability to air / moisture” value in data set [2] is “quite sensitive to adventitious moisture”.
As to `Clc1ccc(N=[N][Tc]([Cl])([N]=Nc2ccc(Cl)cc2)([PH](c2ccccc2)(c2ccccc2)c2ccccc2)[PH](c2ccccc2)(c2ccccc2)c2ccccc2)cc1` [Complex 9, [TcCl(NNC6H4Cl)2(PPh3)2]], in data set [2], the “stability to air / moisture” value was “air-stable”. The solubility result in data set [3] was “reasonably soluble”.
As to `O=C1[O][Tc]([Cl])([Cl])([P+](c2ccccc2)(c2ccccc2)c2ccccc2)([P+](c2ccccc2)(c2ccccc2)c2ccccc2)=[N]c2ccccc21` [Complex 18, [TcCl2(NC6H4CO2)(PPh3)2]], in data set [3], the solubility entry is “soluble in DMF and CH2Cl2”.
On to `[N]#[Tc]([Cl])([Cl])([P](c1ccccc1)(c1ccccc1)c1ccccc1)[P](c1ccccc1)(c1ccccc1)c1ccccc1` [Example 7, TcNCl2(Ph3)2], for which the “stability to air / moisture” value in data set [2] is “air-stable”. Moreover, in data set [3], the solubility result was “quite soluble in CH2Cl2 and insoluble in ether, petrol and alcohols”.
For the molecule `CN([N]=[Tc]([Cl])([Cl])([Cl])([P](c1ccccc1)(c1ccccc1)c1ccccc1)[P](c1ccccc1)(c1ccccc1)c1ccccc1)c1ccccc1` [Example 10, TcNNPhMe(PPh3)2Cl3], in data set [2], the “stability to air / moisture” value is reported as “air-stable”. The solubility result in data set [3] is listed as “reasonably soluble”.
Consider `COCCOCC(COCCOC)(CP(C)C)CP(C)C` [PL43], for which, in data set [1] (Time P. I. 2), the “Bladder & Urine” value is recorded as 0.16, the Blood is on record as 21.5, the H/Bl was 0.41 and the H/Li worked out at 0.38. In addition, in data set [1] (Time P. I. 2), the Heart was 0.55, the Kidney was 9.19, the Liver was found to be 21.4 and the Lung was found to be 1.47. For the same molecule, in data set [1] (Time P. I. 2), the Muscle amounted to 21.7 and the “S. I.” value is reported as 8.6. In data set [1] (Time P. I. 60), the “Bladder & Urine” value is on record as 25.4, the Blood amounted to 1.14, the H/Bl was 3.83 and the H/Li was found to be 0.40. In data set [1] (Time P. I. 60), this molecule yielded a Heart of 0.26, a Kidney of 2.32, a Liver of 9.08 and a Lung of 0.22. In data set [1] (Time P. I. 60), the Muscle is 10.9 and the “S. I.” value was 45.6.
For the molecule `[Cl][Tc]([N]=Nc1ccccc1)([N]=Nc1ccccc1)([PH](c1ccccc1)(c1ccccc1)c1ccccc1)[PH](c1ccccc1)(c1ccccc1)c1ccccc1` [[TcCl(NNPh)2(PPh3)2], [Tc(NNPh)2Cl(PPh3)2]], the solubility entry in data set [3] was “somewhat insoluble”; in data set [3] (listed as Tc(NNPh)2Cl(PPh3)2), “only partially soluble in halogenated solvents and insoluble in alcohols”.
For [TC(NNC6H4Cl)2(N2S2)]x [Complex 17], in data set [3], the solubility entry was “too insoluble for satisfactory analysis by NMR”.
With “[Tc(NC6H4Z)Cl(dppe)2] (BPh4) Z═CH3 [Complex 6]”, the “stability to air / moisture” value in data set [2] is given as “air-stable”. In addition, the solubility result in data set [3] was “quite soluble in CH2Cl2 and insoluble in ether, petrol and alcohols”.
With [TcN(dppe)2Cl][PF6] [Example 8], the “stability to air / moisture” value in data set [2] is “air-stable”. The solubility result in data set [3] is “quite soluble in CH2Cl2 and insoluble in ether, petrol and alcohols”.
For [Tc^III(NNC6H4NO2) (Cl(dmpe)2]^+, in data set [1] (Time P. I. 2), the “Bladder & Urine” value is 0.08, the Blood stood at 5.68, the Brain is 0.12 and the H/Bl is recorded as 3.00. In data set [1] (Time P. I. 2), this molecule returned a H/Li of 0.72, a Heart of 1.15, a Kidney of 9.47 and a Liver of 22.4. Further, in data set [1] (Time P. I. 2), the Lung is given as 2.27, the Muscle is listed as 26.2 and the “S. I.” value is reported as 13.0. In addition, in data set [1] (Time P. I. 60), the “Bladder & Urine” value is 7.28, the Blood stood at 0.92, the Brain amounted to 0.06 and the H/Bl amounted to 11.0. In data set [1] (Time P. I. 60), the H/Li is on record as 0.76, the Heart is reported as 0.67, the Kidney was found to be 9.47 and the Liver amounted to 12.3. Also, in data set [1] (Time P. I. 60), the Lung is 1.04, the Muscle came to 16.8 and the “S. I.” value worked out at 33.8.
